Like-named read-outs stand apart in the source and are kept apart here.
Tests used:
NF-κB = NF-κB assay: THP1-NF-κB-LUC cells, LPS-stimulated secreted luciferase; assay type: cell-based; conditions: THP1-NF-κB-LUC cells, read-out: IC50 (NF-κB assay)
Outline: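 THP1-NF-κB-LUC cells (25k/well) were pretreated with compounds for 2 h, then stimulated with LPS (10 ng/mL) for 18 h. Secreted luciferase was measured and normalized to vehicle, and IC50 was fitted from the concentration series.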

TNF release = test: TNF assay: TNF release from LPS-stimulated human PBMCs (TNF ELISA); assay type: cell-based; conditions: PBMC, read-out: IC50 (TNF assay)
Outline: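 TNF ELISA on supernatants read-out; cells were 10k human PBMCs/well given LPS at 10 ng/mL for 18 h after a 2 h compound pre-incubation across a concentration series, with IC50 derived for suppression of TNF secretion.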

[1] = LPS-stimulated human PBMCs, TNF ELISA
[2] = compounds 2 hours before LPS (10 ng/mL) for 18 hours, secreted luciferase
[3] = human PBMCs, compounds 2 hours before LPS (10 ng/ml) for 18 hours, supernatant TNF ELISA

Row | SMILES | IC50 (NF-κB; LPS-stimulated) [nM] | IC50 (TNF release; [1]) [nM] | IC50 (NF-κB; [2]) [nM] | IC50 (TNF release; [3]) [nM]
1 | COCCCNS(=O)(=O)c1ccc2nc(-c3ccc(F)cc3)c(-c3ccc(F)cc3)nc2c1 [BC19554] | < 100 | > 10000 |  | 
2 | CN(C)CCNS(=O)(=O)c1ccc2nc(-c3ccc(F)cc3)c(-c3ccc(F)cc3)nc2c1 [BC19555] | < 100 | 1000 to 10000 |  | 
3 | CCNS(=O)(=O)c1ccc2nc(-c3ccc(F)cc3)c(-c3ccc(F)cc3)nc2c1 [BC19556] | 100 to 1000 | > 10000 |  | 
4 | O=S(=O)(NCc1cccnc1)c1ccc2nc(-c3ccc(F)cc3)c(-c3ccc(F)cc3)nc2c1 [BC19557] | < 100 | > 10000 |  | 
5 | O=S(=O)(NCc1ccncc1)c1ccc2nc(-c3ccc(F)cc3)c(-c3ccc(F)cc3)nc2c1 [BC19558] | 100 to 1000 | > 10000 |  | 
6 | O=S(=O)(NCc1ccccn1)c1ccc2nc(-c3ccc(F)cc3)c(-c3ccc(F)cc3)nc2c1 [BC19559] | < 100 | > 10000 |  | 
7 | O=C1CCCN1CCCNS(=O)(=O)c1ccc2nc(-c3ccc(F)cc3)c(-c3ccc(F)cc3)nc2c1 [BC19560] | < 100 | > 10000 |  | 
8 | Cc1ccc(-c2nc3ccc(S(=O)(=O)NCCCN4CCN(C)CC4)cc3nc2-c2ccc(C)cc2)cc1 [BC19561] | 100 to 1000 | > 10000 |  | 
9 | CN(C)CCCNS(=O)(=O)c1ccc2nc(-c3ccc(F)cc3)c(-c3ccc(F)cc3)nc2c1 [BC19562] | 100 to 1000 | 1000 to 10000 |  | 
10 | CCNC(=O)Nc1ccc2nc(-c3ccc(F)cc3)c(-c3ccc(F)cc3)nc2c1 [BC19563] | < 100 | > 10000 |  | 
11 | CN(C)CCNC(=O)Nc1ccc2nc(-c3ccc(F)cc3)c(-c3ccc(F)cc3)nc2c1 [BC19564] | < 100 | 1000 to 10000 |  | 
12 | COCCNC(=O)Nc1ccc2nc(-c3ccc(F)cc3)c(-c3ccc(F)cc3)nc2c1 [BC19565] | < 100 | > 10000 |  | 
13 | O=C(NCCO)Nc1ccc2nc(-c3ccc(F)cc3)c(-c3ccc(F)cc3)nc2c1 [BC19566] | < 100 | > 10000 |  | 
14 | O=C(NCCN1CCOCC1)Nc1ccc2nc(-c3ccc(F)cc3)c(-c3ccc(F)cc3)nc2c1 [BC19567] | 100 to 1000 | 1000 to 10000 |  | 
15 | O=C(Nc1ccc2nc(-c3ccc(F)cc3)c(-c3ccc(F)cc3)nc2c1)NC1CC1 [BC19568] | 100 to 1000 | > 10000 |  | 
16 | O=C(NCC1CC1)Nc1ccc2nc(-c3ccc(F)cc3)c(-c3ccc(F)cc3)nc2c1 [BC19569] | 100 to 1000 | > 10000 |  | 
17 | O=C(NCc1ccccn1)Nc1ccc2nc(-c3ccc(F)cc3)c(-c3ccc(F)cc3)nc2c1 [BC19570] | 100 to 1000 | > 10000 |  | 
18 | O=C(NCc1cccnc1)Nc1ccc2nc(-c3ccc(F)cc3)c(-c3ccc(F)cc3)nc2c1 [BC19571] | 100 to 1000 | 1000 to 10000 |  | 
19 | O=C(NCc1ccncc1)Nc1ccc2nc(-c3ccc(F)cc3)c(-c3ccc(F)cc3)nc2c1 [BC19572] | 100 to 1000 | > 10000 |  | 

Row | SMILES | IC50 (NF-κB; LPS-stimulated) [nM] | IC50 (TNF release; [1]) [nM] | IC50 (NF-κB; [2]) [nM] | IC50 (TNF release; [3]) [nM]
20 | CN(C)CCCNC(=O)Nc1ccc2nc(-c3ccc(F)cc3)c(-c3ccc(F)cc3)nc2c1 [BC19573] | 100 to 1000 | 100 to 1000 |  | 
21 | COCCCNC(=O)Nc1ccc2nc(-c3ccc(F)cc3)c(-c3ccc(F)cc3)nc2c1 [BC19574] | 100 to 1000 | > 10000 |  | 
22 | O=C(NCCCO)Nc1ccc2nc(-c3ccc(F)cc3)c(-c3ccc(F)cc3)nc2c1 [BC19575] | 100 to 1000 | > 10000 |  | 
23 | O=C(NCCCN1CCOCC1)Nc1ccc2nc(-c3ccc(F)cc3)c(-c3ccc(F)cc3)nc2c1 [BC19576] | 100 to 1000 | > 10000 |  | 
24 | CN1CCN(Cc2ccc3nc(-c4ccc(F)cc4)c(-c4ccc(F)cc4)nc3c2)CC1 [BC19577] | 100 to 1000 | > 10000 |  | 
25 | CN1CCN(C(=O)c2ccc3nc(-c4ccc(F)cc4)c(Nc4ccc(F)cc4)nc3c2)CC1 [BC19578] | > 10000 | > 10000 |  | 
26 | O=c1[nH]ccc2cc(Sc3ccc(F)cc3)ccc12 [BC19580] |  |  | > 10000 | > 10000
27 | O=S(=O)(c1ccc(Cl)cc1)c1nc(-c2cccc(F)c2)sc1S(=O)(=O)C1CCCCC1 [BC19583] | > 10000 | > 10000 |  | 
28 | COCCS(=O)(=O)c1sc(-c2cccc(F)c2)nc1S(=O)(=O)c1ccc(F)cc1 [BC19587] | 1000 to 10000 | 1000 to 10000 |  | 
29 | CC(C)C[S+]([O-])c1sc(-c2cccc(F)c2)nc1S(=O)(=O)c1ccc(F)cc1 (centres unmarked) [BC19588] | 1000 to 10000 | > 10000 |  | 
30 | CCCS(=O)(=O)c1sc(-c2cccc(F)c2)nc1S(=O)(=O)c1ccc(F)cc1 [BC19589] | 1000 to 10000 | 1000 to 10000 |  | 
31 | CCC[S+]([O-])c1sc(-c2cccc(F)c2)nc1S(=O)(=O)c1ccc(F)cc1 (centres unmarked) [BC19590] | 1000 to 10000 | 1000 to 10000 |  | 
32 | CC(C)[S+]([O-])c1sc(-c2cccc(F)c2)nc1S(=O)(=O)c1ccc(F)cc1 (centres unmarked) [BC19591] | 1000 to 10000 | 1000 to 10000 |  | 
33 | O=S(=O)(CC1CC1)c1sc(-c2cccc(F)c2)nc1S(=O)(=O)c1ccc(Cl)cc1 [BC19592] | 1000 to 10000 | 1000 to 10000 |  | 
34 | CC(C)C[S+]([O-])c1sc(-c2ccc(Cl)cc2)nc1S(=O)(=O)c1ccc(F)cc1 (centres unmarked) [BC19593] | 100 to 1000 | 1000 to 10000 |  | 
35 | O=S(=O)(c1ccc(F)cc1)c1nc(-c2ccc(Cl)cc2)sc1[S+]([O-])C1CCCCC1 (centres unmarked) [BC19594] | > 10000 | > 10000 |  | 
36 | C[S+]([O-])c1sc(-c2cccc(F)c2)nc1S(=O)(=O)c1ccc(F)cc1 (centres unmarked) [BC19595] | 100 to 1000 | 100 to 1000 |  | 
37 | COCC[S+]([O-])c1sc(-c2cccc(F)c2)nc1S(=O)(=O)c1ccc(F)cc1 (centres unmarked) [BC19599] | 1000 to 10000 | 1000 to 10000 |  | 

Continued, values first:

Row | IC50 (NF-κB; LPS-stimulated) [nM] | IC50 (TNF release; [1]) [nM] | IC50 (NF-κB; [2]) [nM] | IC50 (TNF release; [3]) [nM] | SMILES
38 | 1000 to 10000 | > 10000 |  |  | O=C1NCCOc2c1cc(Br)cc2S(=O)(=O)Nc1ccc(F)cc1 [BC19549]
39 | < 100 | > 10000 |  |  | O=C1NCCOc2c1cc(Br)cc2S(=O)(=O)Nc1ccc(OC(F)(F)F)cc1 [BC19550]
40 | 100 to 1000 | > 10000 |  |  | O=C1NCCOc2c1cc(Br)cc2S(=O)(=O)Nc1ccc(F)c(F)c1 [BC19551]
41 | 100 to 1000 | > 10000 |  |  | Cc1ccc(NS(=O)(=O)c2cc(Br)cc3c2OCCNC3=O)cc1F [BC19552]
42 | 1000 to 10000 | > 10000 |  |  | O=C1NCCOc2c1cc(Br)cc2S(=O)(=O)Nc1ccccc1 [BC19553]
43 |  |  | > 10000 | > 10000 | O=c1[nH]ccc2cc(S(=O)(=O)c3ccccc3)ccc12 [BC19579]
44 | > 10000 | > 10000 |  |  | CC(C)S(=O)(=O)c1[nH]c(-c2ccccc2)nc1S(=O)(=O)c1ccc(F)cc1 [BC19581]
45 | 1000 to 10000 | > 10000 |  |  | CC(C)C[S+]([O-])c1[nH]c(-c2ccccc2)nc1S(=O)(=O)c1ccc(F)cc1 (centres unmarked) [BC19582]
46 | 1000 to 10000 | > 10000 |  |  | CC(C)[S+]([O-])c1[nH]c(-c2ccccc2)nc1S(=O)(=O)c1ccc(Cl)cc1 (centres unmarked) [BC19584]
47 | 1000 to 10000 | > 10000 |  |  | CCC[S+]([O-])c1[nH]c(-c2ccccc2)nc1S(=O)(=O)c1ccc(F)cc1 (centres unmarked) [BC19585]
48 | 1000 to 10000 | > 10000 |  |  | O=S(=O)(c1ccc(F)cc1)c1nc(-c2ccccc2)[nH]c1[S+]([O-])C1CCCCC1 (centres unmarked) [BC19586]
49 | 100 to 1000 | 1000 to 10000 |  |  | CS(=O)(=O)c1sc(-c2cccc(F)c2)nc1S(=O)(=O)c1ccc(F)cc1 [BC19596]
50 | 1000 to 10000 | > 10000 |  |  | O=S(=O)(c1ccc(F)cc1)c1nc(-c2cccc(F)c2)sc1[S+]([O-])CC1CC1 (centres unmarked) [BC19597]
51 | 1000 to 10000 | 1000 to 10000 |  |  | O=S(=O)(CC1CC1)c1sc(-c2cccc(F)c2)nc1S(=O)(=O)c1ccc(F)cc1 [BC19598]
52 | > 10000 | > 10000 |  |  | CCC[S+]([O-])c1c(S(=O)(=O)c2ccc(F)cc2)nc(-c2ccccc2)n1C (centres unmarked) [BC19600]
53 | > 10000 | > 10000 |  |  | CC(C)[S+]([O-])c1c(S(=O)(=O)c2ccc(F)cc2)nc(-c2ccccc2)n1C (centres unmarked) [BC19601]
54 | > 10000 | > 10000 |  |  | Cn1c(-c2ccccc2)nc(S(=O)(=O)c2ccc(F)cc2)c1[S+]([O-])CC1CC1 (centres unmarked) [BC19602]
55 | 100 to 1000 | > 10000 |  |  | O=C1NCCOc2c1cc(Br)cc2S(=O)(=O)Nc1ccc(Cl)cc1 [BC19603]

Reference: US12606528B2, “Methods and materials for inhibiting NF-kB activity” (University of Pittsburgh - Of the Commonwealth System of …, priority 2019, dated 2026)
